These results are taken from US20200188361A1, “USE OF MITOCHONDRIAL ACTIVITY INHIBITORS FOR THE TREATMENT OF POOR PROGNOSIS ACUTE MYELOID LEUKEMIA” (UNIVERSITE DE MONTREAL, priority 2016, published 2020).

For one test, the system named is OCI-AML3 cells. The test is described as follows: Dose-response curves in AML cell line (6-day culture assay in 384-well plates). To be noted: dose-response curves FIGS. 5H-J. The test is classed as cell-based. The protocol: FIGS. 5A-5J show the results on experiments assessing the mode of action of Mubritinib for mediating tumor cell death. FIG. 5A: OCI-AML3 leukemic cells were either pre-incubated for 4 hours with 6 mM N-acetyl-cysteine (NAC), a reactive oxygen species (ROS) scavenger, or with vehicle (water) before being treated with 100 nM Mubritinib for 24 h or vehicle (DMSO). […] FIGS. 5C and 5D show the levels of reduced and oxidized levels of glutathione, respectively, in OCI-AML3 treated or not with Mubritinib, as detected by liquid chromatography-mass spectrometry (LC/MS). […] FIG. 5G is a graph depicting dose-response curves upon Mubritinib treatment (6-day culture assay in 384-well plates) of OCI-AML3 and OCI-AML5 cell lines. FIGS. 5H-J are graphs depicting dose-response curves following treatment of OCI-AML3 and OCI-AML5 cell lines with other ETC inhibitors, namely Oligomycin (inhibitor of complex V, FIG. 5H), Rotenone (inhibitor of complex I, FIG. 5I) and Deguelin (inhibitor of complex I, FIG. 5J).
OCI-AML3 cells were maintained in alpha-MEM, 20% FBS whereas breat tumor BT474 cells were maintained in DMEM 10% FBS.
(§1) Patient cells were seeded in 384-well plates at a density of 5,000 cells in 50 μL per well. In the initial screen, compounds were added to seeded cells in serial dilutions (10 dilutions, 1:3, starting from 10 μM or 20 μM), in duplicates. Cells treated with 0.1% DMSO without additional compound were used as negative controls. Viable cell counts per well were evaluated after 6 days of culture using the CellTiterGlo® assay (Promega®) according to the manufacturer's instruction. The percent of inhibition was calculated as follows: 100−(100×(mean luminescence(compound)/mean luminescence(DMSO)); where mean-luminescence(compound) corresponds to the average of luminescent signals obtained for the compound-treated cells, and mean-luminescence(DMSO) corresponds to the average of luminescent signals obtained for the control DMSO-treated cells.

A further test has as its system AML patient specimens. The test is described as follows: Cell dose-response viability assay on AML patient specimens (primary and validation screen). The test is classed as cell-based, human. To be noted: all 41 AML patient specimens tested, primary screen (FIG. 4D). The method, then: (§2) frozen AML mono-nucleated cells were thawed at 37° C. in Iscove's modified Dulbecco's medium (IMDM) containing 20% FBS and DNase I (100 μg/mL).
as §1

Test [1] has as its system HOX-high AML patient cells. The test is described as follows: Primary chemical screen of 60 compounds, cell dose-response viability assay (CellTiterGlo, 6 days). The test is classed as cell-based, human. The protocol:
as §2
(§3) All powders were dissolved in DMSO and diluted in culture medium immediately before use. Final DMSO concentration in all conditions was 0.1%. The 60 compounds were purchased from various suppliers including Santa Cruz, Selleckchem, Calbiochem, AdooQ Bioscience, Cayman chemical and Synkinase.
(§4) Patient cells were seeded in 384-well plates at a density of 5,000 cells in 50 μL per well. In the initial screen, compounds were added to seeded cells in serial dilutions (10 dilutions, 1:3, starting from 10 μM or 20 μM), in duplicates. Cells treated with 0.1% DMSO without additional compound were used as negative controls. Viable cell counts per well were evaluated after 6 days of culture using the CellTiterGlo® assay (Promega®) according to the manufacturer's instruction.
(§5) Using high expression of HOXA9 and HOXA10 as a surrogate for the detection of HOX-network-high patient samples, the survival of HOX-high versus HOX-med/low specimens contacted with 60 inhibitors targeting receptor tyrosine kinases (RTK), members of the RAS and PI3K pathways, was assessed (FIG. 2A, Table 4).
Background: Cellular ATP, detected with luciferase, serves as a proxy for viable cell number.

The test system of test [2] is HOX-med/low AML patient cells. The test is described as above. To be noted: Homo sapiens, 144 h; primary screen; mean over HOX-med/low patient specimens; 6 days culture; top concentration 10 μM or 20 μM; read-out: MEAN EC50 HOX-med/low. The test is classed as cell-based, human. The protocol: as §2, §3, §4, §5

SMILES strings stand for the structures.

On to `CC[C@H]1/C=C/C=C/C[C@@H](C)[C@H](O)[C@@](C)(O)C(=O)[C@@H](C)[C@H](O)[C@@H](C)C(=O)[C@@H](C)[C@H](O)[C@@H](C)/C=C/C(=O)O[C@@H]2[C@H](C)[C@H](CC1)O[C@]1(CC[C@H](C)[C@H](C[C@@H](C)O)O1)[C@H]2C` [Oligomycin], for which the “sensitivity of OCI-AML3 relative to OCI-AML5” value in the test on OCI-AML3 cells is “more sensitive than OCI-AML5”. As for `CS(=O)(=O)CCNCc1ccc(-c2ccc3ncnc(Nc4ccc(OCc5cccc(F)c5)c(Cl)c4)c3c2)o1` [Lapatinib ditosylate., Lapatinib ditosylate], in the test on AML patient specimens, the “sensitivity of AML patient specimens” value is “resistant”. For the same compound, the EC50 in test [1] (Homo sapiens, 144 h, primary screen, mean over HOX-high patient specimens, 6 days culture, top concentration 10 μM or 20 μM, read-out: MEAN EC50 HOX-high) came to 8.87 µM; in test [2], 9.92 µM. The “FOLD CHANGE High/Med-low” value in test [1] (ratio of mean EC50 HOX-high to mean EC50 HOX-med/low) came out at 0.9.

Turning to `C=C(C)[C@H]1Cc2c(ccc3c2O[C@@H]2COc4cc(OC)c(OC)cc4[C@@H]2C3=O)O1` [Rotenone], in the test on OCI-AML3 cells, the “sensitivity of OCI-AML3 relative to OCI-AML5” value is “more sensitive than OCI-AML5”.

For `COc1cc2c(cc1OC)[C@@H]1C(=O)c3ccc4c(c3O[C@@H]1CO2)C=CC(C)(C)O4` [Deguelin], the “sensitivity of OCI-AML3 relative to OCI-AML5” value with OCI-AML3 cells is recorded as “more sensitive than OCI-AML5”.
